Results taken from patent publication US20240066003A1, “NEURODEVELOPMENTAL DISORDER THERAPY” (Anavex Life Sciences Corp., priority 2016, published 2024).

Columns and labels:
[1] = tested on: heterozygous MECP2knockout mice (HET); experiment: Clasping of hind legs; format: in vivo; conditions: 8 weeks of age; 30 mg/kg p.o. daily
Procedure: Studies employed wild type (WT) mice and heterozygous MECP2knockout mice (HET) All mice were provided by Jackson Laboratory, Bar Harbor, Maine. HET mice were Bird mice (Jackson Laboratories, Bar Harbor, ME, B6.129P2(C)-Mecp2^tm1.1Bird/Stock Number: 003890) were obtained by crossing het females with wild type (WT) males (C57B/6J). […] Mecp2 females testing at ˜8 and ˜12 weeks of age WT—vehicle (0.25% MC/dH2O) HET—vehicle (0.25% MC/dH2O) HET—A2-733 (10 mg/kg) HET—A2-733 (30 mg/kg) Chronic dosing (p.o.) daily, starting at ˜5.5 weeks of age and continuing through the 12-week behavioral testing time point 60 min pre-treatment during behavioral testing. Mice are lifted gently by the tail with front limbs remaining on surface. Clasping of hind legs is noted (normal is a spread in the hind legs).

[2] = tested on: heterozygous MECP2knockout mice (HET); experiment: NeuroCube gait analysis; format: in vivo
Procedure: Studies employed wild type (WT) mice and heterozygous MECP2knockout mice (HET) All mice were provided by Jackson Laboratory, Bar Harbor, Maine. HET mice were Bird mice (Jackson Laboratories, Bar Harbor, ME, B6.129P2(C)-Mecp2^tm1.1Bird/Stock Number: 003890) were obtained by crossing het females with wild type (WT) males (C57B/6J). […] Mecp2 females testing at ˜8 and ˜12 weeks of age WT—vehicle (0.25% MC/dH2O) HET—vehicle (0.25% MC/dH2O) HET—A2-733 (10 mg/kg) HET—A2-733 (30 mg/kg) Chronic dosing (p.o.) daily, starting at ˜5.5 weeks of age and continuing through the 12-week behavioral testing time point 60 min pre-treatment during behavioral testing. Neurological testing via a platform that employs computer vision to detect changes in gait geometry and gait dynamics in rodent models of neurological disorders, pain, and neuropathies. Complex bio-informatics algorithms similar to those used in SmartCube® are employed to detect a disease phenotype and screen compounds. (NeuroCube, PsychoGenics, Tarrytown NY) A platform that employs computer vision to detect changes in gait geometry and gait dynamics in rodent models of neurological disorders, pain, and neuropathies. Mice are allowed to walk in the chamber for 5 min. When the paw touches the screen, LED light reflects creating bright spots. Images are captured and processed using proprietary computer vision and bio-informatics data mining algorithms.

Rett syndrome [3] = experiment: Example 1 breathing variability in Rett syndrome patient; format: in vivo, human; conditions: person, oral 4 mg daily for 10 days
Procedure: A person presenting with Rett syndrome is administered oral doses of A2-73 at 4 mg daily for 10 days. On presentation, their breathing is abnormal. Their mean breaths per minute is calculated to assess breathing variability.

Rett syndrome [4] = experiment: Example 4 eating and choking in Rett syndrome patient; format: in vivo, human; conditions: person, oral 40 mg every other day, after 60 days
Procedure: A person presents with Rett syndrome. […] They begin treatment with oral doses of A2-73 at 40 mg every other day.

Angelman syndrome = experiment: Example 5 sleep and seizures in Angelman syndrome patient; format: in vivo, human; conditions: person, oral 30 mg/day, after 15 days
Procedure: A person presents with Angelman syndrome. They experience disturbed sleep and frequent seizures prior to commencing therapy. They begin treatment with oral doses of A2-73 at 30 mg/day.

Smith—Magenis syndrome = experiment: Example 7 sleep in Smith-Magenis syndrome patient; format: in vivo, human; conditions: person, oral 10 mg/day, after 15 days
Procedure: A person presents with Smith—Magenis syndrome. They experience disturbed sleep. They begin treatment with oral doses of A2-73 at 10 mg/day.

[5] = tested on: amyloid β25-35 peptide (Aβ25-35) injected mice; conditions: cited from earlier work

CN(C)CC1CCOC1(c1ccccc1)c1ccccc1.Cl (stereo not shown) [A2-73, tetrahydro-N,N-dimethyl-2,2-diphenyl-3-furanmethanamine hydrochloride]
clasping vs vehicle-treated mutant mice [1]: clasped less
NeuroCube GAIT, Het vehicle v. Het AV2-73 ([2]; 8 week, 10 mg/kg, p > 0.09): 63, p > 0.09
NeuroCube Body Motion, Het vehicle v. Het AV2-73 ([2]; 8 week, 10 mg/kg, p > 0.20): 60, p > 0.20
NeuroCube Correlation, Het vehicle v. Het AV2-73 ([2]; 8 week, 10 mg/kg, p > 0.40): 56, p > 0.40
NeuroCube Paw Positioning, Het vehicle v. Het AV2-73 ([2]; 8 week, 10 mg/kg, p > 0.57): 53, p > 0.57
NeuroCube Overall, Het vehicle v. Het AV2-73 ([2]; 8 week, 10 mg/kg, p > 0.69): 53, p > 0.69
NeuroCube Paw Features, Het vehicle v. Het AV2-73 ([2]; 8 week, 10 mg/kg, p > 0.78): 52, p > 0.78
NeuroCube Body Motion, Het vehicle v. Het AV2-73 ([2]; 8 week, 30 mg/kg, p < 0.003): 81, p < 0.003
NeuroCube Correlation, Het vehicle v. Het AV2-73 ([2]; 8 week, 30 mg/kg, p < 0.005): 76, p < 0.005
NeuroCube GAIT, Het vehicle v. Het AV2-73 ([2]; 8 week, 30 mg/kg, p < 0.05): 69, p < 0.05
NeuroCube Overall, Het vehicle v. Het AV2-73 ([2]; 8 week, 30 mg/kg, p > 0.24): 62, p > 0.24
NeuroCube Paw Positioning, Het vehicle v. Het AV2-73 ([2]; 8 week, 30 mg/kg, p > 0.36): 57, p > 0.36
NeuroCube Paw Features, Het vehicle v. Het AV2-73 ([2]; 8 week, 30 mg/kg, p > 0.56): 55, p > 0.56
NeuroCube separation versus Het vehicle ([2]; 8 weeks of age): no separation
recovery of the overall signature ([2]; 8 weeks of age, NeuroCube): 9-17%
NeuroCube GAIT, Het vehicle v. Het AV2-73 ([2]; 12 week, 10 mg/kg, p > 0.29): 57, p > 0.29
NeuroCube Paw Features, Het vehicle v. Het AV2-73 ([2]; 12 week, 10 mg/kg, p > 0.35): 56, p > 0.35
NeuroCube Paw Positioning, Het vehicle v. Het AV2-73 ([2]; 12 week, 10 mg/kg, p > 0.57): 53, p > 0.57
NeuroCube Correlation, Het vehicle v. Het AV2-73 ([2]; 12 week, 10 mg/kg, p > 0.70): 53, p > 0.70
NeuroCube Overall, Het vehicle v. Het AV2-73 ([2]; 12 week, 10 mg/kg, p > 0.70): 53, p > 0.70
NeuroCube Body Motion, Het vehicle v. Het AV2-73 ([2]; 12 week, 10 mg/kg, p > 0.71): 52, p > 0.71
NeuroCube Correlation, Het vehicle v. Het AV2-73 ([2]; 12 week, 30 mg/kg, p < 0.03): 69, p < 0.03
NeuroCube Body Motion, Het vehicle v. Het AV2-73 ([2]; 12 week, 30 mg/kg, p < 0.04): 68, p < 0.04
NeuroCube Overall, Het vehicle v. Het AV2-73 ([2]; 12 week, 30 mg/kg, p > 0.21): 61, p > 0.21
NeuroCube GAIT, Het vehicle v. Het AV2-73 ([2]; 12 week, 30 mg/kg, p > 0.37): 57, p > 0.37
NeuroCube Paw Positioning, Het vehicle v. Het AV2-73 ([2]; 12 week, 30 mg/kg, p > 0.62): 53, p > 0.62
NeuroCube Paw Features, Het vehicle v. Het AV2-73 ([2]; 12 week, 30 mg/kg, p > 0.65): 53, p > 0.65
breathing variability (breaths/minute) (Rett syndrome [3]): significantly reduced
instances of choking (Rett syndrome [4]): reduced
weight gain (Rett syndrome [4]): 10%
reduction of instances of seizure (Angelman syndrome): 50%
sleep (Angelman syndrome): markedly less disturbed
sleep (Smith—Magenis syndrome): markedly less disturbed
Aβ25-35-induced P-Akt decrease and P-GSK-3β increase ([5]; Lahmy et al. 2013): blocked
hyperphosphorylation of Tau on physiological (AT-8) and pathological (AT-100) epitopes ([5]; in the dose-range tested): attenuated
oxidative stress, caspases induction, cellular loss and learning and memory deficits ([5]; mice one week after the i.v. injection of oligomeric Aβ25-35 (Villard et al. 2011)): attenuating
Aβ25-35-induced endogenous Aβ1-42 seeding ([5]; mouse, in vivo): decreasing
